# In patent publication US10463713B2, “Use of AAC-11 inhibitors for the treatment of viral infection” (INSERM (Institut National de la Sante et de la Recherche …, priority 2016, dated 2019):
# Tests used:
# HIV-1BX08 = type: cell-based; settings: increasing amounts of peptide, three days, primary strain HIV-1BX08, human CD4+ T cells (FIG. 4A bottom panel)
# VSV-G HIV-1-particles = type: cell-based
# cancer cells = test: Annexin-V/PI cell death of cancer cell lines under low-serum stress; type: cell-based; settings: 24 hours, increasing concentrations (FIG. 1)
# Method: (§1) The indicated cell lines or blood cells from healthy donors were treated for 24 hours in a 37° C. incubator (5% CO2) with increasing concentrations of the Antp-AAC-11-LZ (377-399) before Annexin-V and PI staining. The percentages refer to Annexin-V-positive or Annexin-V-positive/PI-positive staining.
# (§2) Detection of phosphatidylserine on apoptotic cells was performed by using an AnnexinV/propidium iodide (PI) detection kit (Beckman Coulter, Immunotech, Marseille, France) according to the manufacturer. Briefly, 5×10^5 cells were incubated in the dark at 4° C. with Annexin V-fluorescein isothiocyanate (FITC) and 2.5 μg/mL PI in phosphate buffer for 10 minutes before 18 000 ungated events were collected within the hour by flow cytometry (FACScalibur, BD Biosciences, Mansfield, Mass.) and analyzed with the ProCellQuest software provided by the manufacturer. In HIV-1 infection assays (see below), cell viability was determined with the help of LIVE/DEAD® Fixable Aqua stain kit as recommended by the manufacturer (Molecular Probes, Life Technologies, Saint Aubin, France).
# SIVmac251 = type: cell-based, SIVmac; settings: increasing amounts of peptide, three days, macaque CD4+ T cells (FIG. 4B)
# HIV-1 BaL [1] = type: cell-based; settings: three days; for HIV-1 replication (p24 antigen in supernatants) / elimination of HIV infected CD4+ T cells: 6 μM peptide, HIV-1 BaL, CD4+ T cells (FIG. 3); for HIV-1 replication (p24 antigen in supernatants) / elimination of HIV infected human CD4+ T cells: increasing amounts of peptide, HIV-1BaL, human CD4+ T cells (FIG. 4A upper panel)
# [2] = system: normal cells (blood cells from healthy donors); test: Annexin-V/PI cell death of normal cells / blood cells from healthy donors under low-serum stress; type: cell-based; settings: 24 hours, increasing concentrations, blood cells from healthy donors (FIG. 1)
# Method: as §1, §2
# HIV-1 BaL [3] = type: cell-based; settings: 4 or 8 μM; added 10 minutes before infection and washed after two hours, or added two hours after infection and kept three days (FIG. 6)
Substance,HIV-1 replication (p24 antigen in supernatants) / elimination of HIV infected human CD4+ T cells (HIV-1BX08),percentage of GFP+ (infected) cells and of viable cells / elimination of HIV infected CD4+ T cells (VSV-G HIV-1-particles),cell death (Annexin-V-positive or Annexin-V-positive/PI-positive staining) of cancer cells (cancer cells),SIVmac251 replication (p27 antigen in supernatants) / elimination of SIVmac infected macaque CD4+ T cells (SIVmac251),HIV-1 replication (p24 antigen in supernatants) / elimination of HIV infected CD4+ T cells (HIV-1 BaL [1]),HIV-1 replication (p24 antigen in supernatants) / elimination of HIV infected human CD4+ T cells (HIV-1 BaL [1]),cell death (Annexin-V-positive or Annexin-V-positive/PI-positive staining) of normal cells [2],HIV-1 infection of human macrophages (HIV-1 BaL [3])
Ac-RQIKIWFKKQNRRMKWKKLQYFARGLQVYIRQLRLALQGKT-NH2 [RT39],induce the selective elimination,induce the selective elimination,induced cancer cells,induce the selective elimination,induce the selective elimination,induce the selective elimination,but not normal cells,
RQIKIWFKKQNRRMKWKKAKLNAEKLKDFKIRLQYFARGLQVYIRQLRLALQGKT (Synthetic Antp-AAC-11-LZ (363-399) (RT53)),induce the selective elimination,induce the selective elimination,,induce the selective elimination,induce the selective elimination,induce the selective elimination,,block HIV-1 infection in human macrophages
RQIKIWFKKQNRRMKWKKYFARGLQVYIRQL (Synthetic Antp-AAC-11-LZ (379-391) (RL29)),,,,,induce the selective elimination,,,
